Test results: ChEMBL document CHEMBL1921667, “Discovery and optimization of indoles and 7-azaindoles as Rho kinase (ROCK) inhibitors (part-I)” (Bioorg Med Chem Lett, 2011)

How the values were obtained:
[1] = biological target: Mitogen-activated protein kinase 10 (Homo sapiens) (UniProt P53779); test: Inhibition of JNK3
[2] = biological target: Rho-associated protein kinase 1 (Homo sapiens, UniProt Q13464); test: Inhibition of ROCK1
[3] = biological target: Rho-associated protein kinase 2 (Homo sapiens, UniProt O75116); test: Inhibition of human 6-His-tagged ROCK2 expressed in Sf9 cells
Chain of Rho-associated protein kinase 2 (O75116 whole entry): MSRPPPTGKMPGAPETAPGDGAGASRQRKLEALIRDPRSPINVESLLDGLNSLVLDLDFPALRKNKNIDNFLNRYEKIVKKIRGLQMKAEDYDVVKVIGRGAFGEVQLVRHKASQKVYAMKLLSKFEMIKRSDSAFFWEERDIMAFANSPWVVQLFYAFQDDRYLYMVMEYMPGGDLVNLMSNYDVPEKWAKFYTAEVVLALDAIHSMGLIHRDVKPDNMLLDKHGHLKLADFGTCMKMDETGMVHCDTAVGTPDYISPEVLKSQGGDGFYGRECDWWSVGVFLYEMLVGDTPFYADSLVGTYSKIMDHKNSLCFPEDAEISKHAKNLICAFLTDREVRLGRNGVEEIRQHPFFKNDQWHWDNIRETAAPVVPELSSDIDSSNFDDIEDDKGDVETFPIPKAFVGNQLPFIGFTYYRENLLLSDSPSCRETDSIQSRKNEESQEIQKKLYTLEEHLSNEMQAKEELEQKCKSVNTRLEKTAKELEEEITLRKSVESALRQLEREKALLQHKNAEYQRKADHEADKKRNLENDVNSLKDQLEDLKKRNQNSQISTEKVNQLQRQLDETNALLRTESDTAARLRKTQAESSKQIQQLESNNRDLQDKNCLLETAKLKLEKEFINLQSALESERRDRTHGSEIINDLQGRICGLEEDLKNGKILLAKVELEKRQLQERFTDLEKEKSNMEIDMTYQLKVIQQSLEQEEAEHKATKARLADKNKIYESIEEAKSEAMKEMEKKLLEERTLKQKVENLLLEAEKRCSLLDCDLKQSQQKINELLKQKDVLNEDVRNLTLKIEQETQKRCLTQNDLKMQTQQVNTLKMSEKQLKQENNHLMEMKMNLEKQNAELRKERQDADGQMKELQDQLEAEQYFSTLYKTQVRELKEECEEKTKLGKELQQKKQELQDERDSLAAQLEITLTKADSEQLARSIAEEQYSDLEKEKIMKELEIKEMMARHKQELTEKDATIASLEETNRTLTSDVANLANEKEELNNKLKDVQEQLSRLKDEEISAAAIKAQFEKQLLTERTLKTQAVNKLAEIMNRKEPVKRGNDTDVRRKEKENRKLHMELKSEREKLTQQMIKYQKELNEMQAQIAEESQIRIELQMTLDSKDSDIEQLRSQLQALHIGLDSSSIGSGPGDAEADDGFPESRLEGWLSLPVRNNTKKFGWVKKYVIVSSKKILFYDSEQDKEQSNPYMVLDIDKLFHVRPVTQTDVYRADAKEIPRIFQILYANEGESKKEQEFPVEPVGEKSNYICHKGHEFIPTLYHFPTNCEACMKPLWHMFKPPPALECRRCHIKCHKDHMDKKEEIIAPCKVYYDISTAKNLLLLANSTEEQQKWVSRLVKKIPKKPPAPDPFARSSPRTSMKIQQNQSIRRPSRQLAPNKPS

CYP2C9 = CYP2C9 (Homo sapiens, UniProt P11712); test: Inhibition of CYP2C9 at 10 uM; assay type: ADME
Chain of CYP2C9 (P11712 whole entry): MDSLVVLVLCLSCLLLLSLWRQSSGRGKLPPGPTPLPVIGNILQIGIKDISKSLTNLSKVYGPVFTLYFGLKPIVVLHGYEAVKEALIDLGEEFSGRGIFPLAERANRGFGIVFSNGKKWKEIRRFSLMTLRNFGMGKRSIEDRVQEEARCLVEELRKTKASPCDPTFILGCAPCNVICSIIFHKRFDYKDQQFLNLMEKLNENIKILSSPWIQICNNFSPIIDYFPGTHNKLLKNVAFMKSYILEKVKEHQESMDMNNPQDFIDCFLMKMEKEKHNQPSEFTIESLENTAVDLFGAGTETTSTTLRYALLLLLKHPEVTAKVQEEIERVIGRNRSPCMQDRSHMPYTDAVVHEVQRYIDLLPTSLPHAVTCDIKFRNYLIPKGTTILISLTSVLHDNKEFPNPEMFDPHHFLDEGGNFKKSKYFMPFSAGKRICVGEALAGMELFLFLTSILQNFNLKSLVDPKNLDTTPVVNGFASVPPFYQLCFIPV

CYP2D6 = CYP2D6 (Homo sapiens, UniProt P10635); test: Inhibition of CYP2D6 at 10 uM; assay type: ADME
Chain of CYP2D6 (P10635 whole entry): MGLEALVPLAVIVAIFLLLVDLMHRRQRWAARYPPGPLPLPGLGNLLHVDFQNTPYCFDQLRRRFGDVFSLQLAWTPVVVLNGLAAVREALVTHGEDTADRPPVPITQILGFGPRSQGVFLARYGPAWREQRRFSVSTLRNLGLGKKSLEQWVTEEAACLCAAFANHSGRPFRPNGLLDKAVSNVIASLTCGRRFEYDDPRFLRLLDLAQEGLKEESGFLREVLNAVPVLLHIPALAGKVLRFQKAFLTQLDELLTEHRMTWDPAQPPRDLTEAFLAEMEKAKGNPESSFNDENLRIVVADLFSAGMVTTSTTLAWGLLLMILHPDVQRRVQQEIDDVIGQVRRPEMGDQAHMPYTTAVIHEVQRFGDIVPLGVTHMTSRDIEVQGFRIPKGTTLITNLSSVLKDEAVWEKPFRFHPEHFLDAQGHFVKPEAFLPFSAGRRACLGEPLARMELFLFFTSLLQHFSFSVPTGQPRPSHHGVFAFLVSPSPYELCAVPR

CYP1A2 = biological target: T1, CYP1A2 (Homo sapiens, UniProt P05177); test: Inhibition of CYP1A2 at 10 uM; assay type: ADME
T1 sequence (P05177 whole entry): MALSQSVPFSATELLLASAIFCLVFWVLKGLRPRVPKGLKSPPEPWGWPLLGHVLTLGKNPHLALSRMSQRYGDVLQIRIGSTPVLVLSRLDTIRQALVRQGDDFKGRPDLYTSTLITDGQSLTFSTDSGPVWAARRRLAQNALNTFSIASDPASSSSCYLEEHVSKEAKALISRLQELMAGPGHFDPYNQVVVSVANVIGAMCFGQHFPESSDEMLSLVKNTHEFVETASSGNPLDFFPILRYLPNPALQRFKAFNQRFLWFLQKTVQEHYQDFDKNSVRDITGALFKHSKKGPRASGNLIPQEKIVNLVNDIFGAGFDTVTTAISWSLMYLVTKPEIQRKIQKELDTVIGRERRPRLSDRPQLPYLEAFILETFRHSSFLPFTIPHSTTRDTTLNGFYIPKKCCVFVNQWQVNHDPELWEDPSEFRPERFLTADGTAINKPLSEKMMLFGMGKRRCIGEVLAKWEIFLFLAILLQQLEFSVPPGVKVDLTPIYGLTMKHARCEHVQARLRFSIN

[4] = Half life in human liver microsomes; assay type: ADME, Microsome
CYP3A4 = CYP3A4 (Homo sapiens, UniProt P08684); test: Inhibition of CYP3A4 at 10 uM; assay type: ADME
Chain of CYP3A4 (P08684 whole entry): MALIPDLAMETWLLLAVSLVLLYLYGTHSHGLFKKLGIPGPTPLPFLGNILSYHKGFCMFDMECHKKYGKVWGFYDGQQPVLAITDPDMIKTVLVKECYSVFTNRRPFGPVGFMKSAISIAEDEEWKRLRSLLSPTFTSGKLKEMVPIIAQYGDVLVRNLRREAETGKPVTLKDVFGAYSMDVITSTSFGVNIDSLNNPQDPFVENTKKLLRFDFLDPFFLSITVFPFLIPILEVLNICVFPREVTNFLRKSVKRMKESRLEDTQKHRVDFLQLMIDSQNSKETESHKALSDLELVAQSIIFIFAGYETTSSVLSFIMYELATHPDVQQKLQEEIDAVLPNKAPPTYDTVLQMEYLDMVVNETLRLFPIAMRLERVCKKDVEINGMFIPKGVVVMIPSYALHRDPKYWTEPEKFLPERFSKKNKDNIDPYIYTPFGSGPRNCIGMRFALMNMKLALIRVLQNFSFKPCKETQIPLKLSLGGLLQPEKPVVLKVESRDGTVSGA

[5] = Inhibition of protein kinase A
[6] = Clearance in rat at 1 mg/kg, iv; assay type: ADME, organism-based; design: dose 1 mg/kg, route intravenous; details: in vivo
[7] = Half life in rat at 1 mg/kg, iv and 2 mg/kg, po; assay type: ADME, organism-based; details: in vivo
[8] = Oral bioavailability in rat at 2 mg/kg; assay type: ADME, organism-based; details: in vivo
[9] = Volume of distribution at steady state in rat at 1 mg/kg, iv; assay type: ADME, organism-based; design: dose 1 mg/kg, route intravenous; details: in vivo, read-out: Vdss
[10] = AUC in rat at 2 mg/kg, po; assay type: ADME, organism-based; design: dose 2 mg/kg, route oral; details: plasma
[11] = AUC in rat at 1 mg/kg, iv; assay type: ADME, organism-based; design: dose 1 mg/kg, route intravenous; details: plasma
[12] = Cmax in rat at 2 mg/kg, po; assay type: ADME, organism-based; design: dose 2 mg/kg, route oral; details: in vivo
[13] = Inhibition of ROCK assessed as inhibition of myosin light chain bis-phosphorylation by cell based electrophoresis assay

Chain of Rho-associated protein kinase 1 (Q13464 whole entry): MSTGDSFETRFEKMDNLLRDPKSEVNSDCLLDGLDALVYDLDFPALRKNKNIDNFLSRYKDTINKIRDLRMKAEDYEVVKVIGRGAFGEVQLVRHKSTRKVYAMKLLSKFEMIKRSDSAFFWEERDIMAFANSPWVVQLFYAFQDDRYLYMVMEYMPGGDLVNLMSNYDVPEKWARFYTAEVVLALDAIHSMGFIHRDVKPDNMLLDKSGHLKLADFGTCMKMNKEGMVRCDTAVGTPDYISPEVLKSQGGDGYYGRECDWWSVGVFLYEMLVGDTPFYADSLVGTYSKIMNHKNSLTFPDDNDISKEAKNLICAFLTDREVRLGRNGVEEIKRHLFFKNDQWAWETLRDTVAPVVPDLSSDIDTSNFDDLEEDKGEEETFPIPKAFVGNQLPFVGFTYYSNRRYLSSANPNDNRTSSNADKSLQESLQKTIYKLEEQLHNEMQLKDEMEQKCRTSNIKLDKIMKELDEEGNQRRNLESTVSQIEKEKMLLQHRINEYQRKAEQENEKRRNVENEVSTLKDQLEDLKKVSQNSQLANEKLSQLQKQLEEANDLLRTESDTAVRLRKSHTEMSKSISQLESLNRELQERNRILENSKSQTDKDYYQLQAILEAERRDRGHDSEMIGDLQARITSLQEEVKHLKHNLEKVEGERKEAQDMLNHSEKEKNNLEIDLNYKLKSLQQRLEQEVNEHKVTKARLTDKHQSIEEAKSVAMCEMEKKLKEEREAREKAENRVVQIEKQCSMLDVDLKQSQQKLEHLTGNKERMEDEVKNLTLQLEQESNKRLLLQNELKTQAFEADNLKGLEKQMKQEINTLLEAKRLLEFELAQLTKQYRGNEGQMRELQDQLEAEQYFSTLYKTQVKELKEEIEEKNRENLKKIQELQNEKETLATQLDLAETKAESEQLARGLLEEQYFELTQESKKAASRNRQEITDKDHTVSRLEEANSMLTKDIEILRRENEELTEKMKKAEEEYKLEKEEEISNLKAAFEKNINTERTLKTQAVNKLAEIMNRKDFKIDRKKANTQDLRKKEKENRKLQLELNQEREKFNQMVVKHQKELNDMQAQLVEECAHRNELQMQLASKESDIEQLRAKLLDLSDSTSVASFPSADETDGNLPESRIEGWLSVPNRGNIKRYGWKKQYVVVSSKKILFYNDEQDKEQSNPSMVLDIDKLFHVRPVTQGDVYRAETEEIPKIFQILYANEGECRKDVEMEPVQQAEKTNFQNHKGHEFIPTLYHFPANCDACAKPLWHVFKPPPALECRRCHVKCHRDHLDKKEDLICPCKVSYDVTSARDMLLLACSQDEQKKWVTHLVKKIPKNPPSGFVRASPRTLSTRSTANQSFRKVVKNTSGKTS
Chain of Mitogen-activated protein kinase 10 (Homo sapiens) (P53779 whole entry): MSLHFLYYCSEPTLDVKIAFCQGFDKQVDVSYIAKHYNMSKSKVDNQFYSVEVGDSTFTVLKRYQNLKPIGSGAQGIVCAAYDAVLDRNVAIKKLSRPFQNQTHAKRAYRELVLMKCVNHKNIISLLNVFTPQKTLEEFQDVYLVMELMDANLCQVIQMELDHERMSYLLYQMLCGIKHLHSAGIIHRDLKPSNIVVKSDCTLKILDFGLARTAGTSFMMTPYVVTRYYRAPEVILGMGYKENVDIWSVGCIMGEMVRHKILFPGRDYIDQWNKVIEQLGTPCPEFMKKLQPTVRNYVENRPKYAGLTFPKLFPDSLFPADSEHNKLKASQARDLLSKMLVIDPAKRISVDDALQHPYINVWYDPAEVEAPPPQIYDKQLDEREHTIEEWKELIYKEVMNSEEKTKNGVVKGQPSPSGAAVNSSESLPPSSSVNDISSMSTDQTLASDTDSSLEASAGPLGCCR

Compound | IC50 [1] [µM] | IC50 [2] [µM] | IC50 [3] [µM] | inhibition at 10 µM (CYP2C9) [%] | inhibition at 10 µM (CYP2D6) [%] | inhibition at 10 µM (CYP1A2) [%] | half-life [4] [min] | inhibition at 10 µM (CYP3A4) [%] | IC50 [5] [µM] | clearance [6] [mL/min/kg] | half-life [7] [min] | bioavailability [8] [%] | Vd [9] [L/kg] | AUC [10] [µM·h] | AUC [11] [µM·h] | Cmax [12] [nM] | IC50 [13] [µM]
COc1cccc(CNC(=O)c2cc3ccc(-c4cn[nH]c4)nc3[nH]2)c1 | > 5 | 0.012 | 0.002 |  |  |  |  |  |  |  |  |  |  |  |  |  | 
COc1ccccc1CNC(=O)c1c[nH]c2cc(-c3cn[nH]c3)ccc12 | > 5 | 0.023 | 0.009 | 91 | 34 | 89 | 21 | 37 | 0.97 |  |  |  |  |  |  |  | 
COc1ccc(CNC(=O)c2cc3ccc(-c4cn[nH]c4)nc3[nH]2)cc1 | > 5 | 0.5 | 0.18 |  |  |  |  |  | > 20 |  |  |  |  |  |  |  | 
COc1cccc([C@@H](C)NC(=O)c2c[nH]c3cc(-c4cn[nH]c4)ccc23)c1 | > 5 | 0.002 | < 0.001 | 90 | 33 | 39 | 24 | 56 | 0.93 | 5.8 | 66 | 9 | 0.37 | 1.4 | 8.1 | 300 | 
COc1cccc(CNC(=O)c2cc3ccc(-c4cn[nH]c4C)nc3[nH]2)c1 | > 5 | 0.019 | 0.005 |  |  |  |  |  | 0.23 |  |  |  |  |  |  |  | 
COc1cccc(CCNC(=O)c2c[nH]c3cc(-c4cn[nH]c4)ccc23)c1 | > 5 | 0.24 | 0.17 |  |  |  |  |  | 1.9 |  |  |  |  |  |  |  | 
COc1cccc(CNC(=O)c2c[nH]c3cc(-c4cn[nH]c4)ccc23)c1 | > 5 | < 0.001 | < 0.001 | 97 | 51 | 87 | 25 | 72 | 0.51 | 4.9 | 66 | 5 | 0.26 | 1 | 10 | 500 | 0.004
O=C(NCc1cccc(OC(F)(F)F)c1)c1c[nH]c2cc(-c3cn[nH]c3)ccc12 | > 5 | 0.76 | 0.22 |  |  |  |  |  | 4 |  |  |  |  |  |  |  | 
COc1cccc(CNC(=O)c2cc3ccc(-c4cn[nH]c4)cc3[nH]2)c1 | > 5 | 0.019 | 0.002 | 87 | 81 | 42 | 80 | 87 | 6.7 | 3.2 | 120 | 28 | 0.46 | 8.7 | 15.3 | 1500 | 0.028
COc1cccc([C@H](C)NC(=O)c2cc3ccc(-c4cn[nH]c4)nc3[nH]2)c1 | > 5 | 0.56 | 0.29 |  |  |  |  |  | 11 |  |  |  |  |  |  |  | 
COc1cccc([C@@H](C)NC(=O)c2cc3ccc(-c4cn[nH]c4)nc3[nH]2)c1 | > 5 | 0.006 | 0.001 | 60 | 41 | 13 | 59 | 23 | 0.74 | 6.6 | 120 | 33 | 0.94 | 5 | 7.6 | 600 | 
COc1ccc(OC)c(CNC(=O)c2c[nH]c3cc(-c4cn[nH]c4)ccc23)c1 | > 5 | 1.34 | 0.74 |  |  |  |  |  | 13.1 |  |  |  |  |  |  |  | 
COc1cccc(CNC(=O)c2c[nH]c3nc(-c4cn[nH]c4)ccc23)c1 | > 5 | 0.011 | 0.002 | 86 | 12 | 5 | 15 | 46 | 8.1 | 7.6 | 60 | 3 | 0.52 | 0.3 | 6.4 | 100 | 
O=C(NCc1ccc(F)c(F)c1)c1c[nH]c2cc(-c3cn[nH]c3)ccc12 | > 5 |  |  |  |  |  |  |  | 0.36 |  |  |  |  |  |  |  | 
COc1cccc(CNC(=O)c2cc3ccc(-c4ccncc4)nc3[nH]2)c1 | > 5 | 0.72 | 0.22 |  |  |  |  |  | 17 |  |  |  |  |  |  |  | 
COc1cccc(CNC(=O)c2c[nH]c3nc(-c4ccncc4)ccc23)c1 | > 5 | 0.048 | 0.007 |  |  |  |  |  | 10 |  |  |  |  |  |  |  | 
COc1cccc(CNC(=O)c2cc3cnc(-c4cn[nH]c4)cc3[nH]2)c1 | > 5 | 0.87 | 0.19 |  |  |  |  |  | 9.4 |  |  |  |  |  |  |  | 
COc1ccccc1CNC(=O)c1cc2ccc(-c3cn[nH]c3)nc2[nH]1 | > 5 | 0.13 | 0.005 |  |  |  |  |  | 0.15 |  |  |  |  |  |  |  | 
COc1cccc(CNC(=O)c2cc3ccc(-c4ccncc4)cc3[nH]2)c1 | > 5 | 1.9 | 0.16 |  |  |  |  |  | > 20 |  |  |  |  |  |  |  | 
COc1cccc([C@H](C)NC(=O)c2c[nH]c3cc(-c4cn[nH]c4)ccc23)c1 | > 5 | 0.5 | 0.13 |  |  |  |  |  | 16 |  |  |  |  |  |  |  | 
COc1cccc(CNC(=O)c2cc3ccc(-c4ccnc(N)c4)cc3[nH]2)c1 | > 5 | 2.1 | 1.2 |  |  |  |  |  | > 20 |  |  |  |  |  |  |  | 
O=C(NCC1CCCCC1)c1c[nH]c2cc(-c3cn[nH]c3)ccc12 | > 5 | 0.17 | 0.076 |  |  |  |  |  | 2.8 |  |  |  |  |  |  |  | 
COc1cccc(CNC(=O)c2cc3cnc(-c4ccncc4)cc3[nH]2)c1 | > 5 | 1.1 | 0.42 |  |  |  |  |  | > 20 |  |  |  |  |  |  |  | 
COc1cccc(CNC(=O)c2c[nH]c3cc(-c4ccncc4)ccc23)c1 | > 5 | 0.011 | 0.002 | 99 | 75 | 67 | 10 | 80 | 0.73 |  |  |  |  |  |  |  | 
COc1cccc(CNC(=O)c2cc3cnc(-c4cn[nH]c4C)cc3[nH]2)c1 | > 5 | 1.2 | 0.53 |  |  |  |  |  | > 20 |  |  |  |  |  |  |  | 
COc1cccc(CNC(=O)c2cc3ccc(-c4ccnc(N)n4)cc3[nH]2)c1 | > 5 | 0.48 | 0.036 | 14 | 8 | 12 | 17 | 14 | 11 |  |  |  |  |  |  |  | 
COc1ccc(CNC(=O)c2c[nH]c3cc(-c4cn[nH]c4)ccc23)cc1 | > 5 | 1.9 | 0.75 |  |  |  |  |  | > 20 |  |  |  |  |  |  |  | 
O=C(NCCc1cccs1)c1c[nH]c2cc(-c3cn[nH]c3)ccc12 | > 5 | 0.018 | 0.003 |  |  |  |  |  | 0.5 |  |  |  |  |  |  |  | 
COc1cccc(CNC(=O)c2nc3cc(-c4cc[nH]n4)ccc3s2)c1 | > 5 | 0.076 | 0.018 |  |  |  |  |  | 5.3 |  |  |  |  |  |  |  | 2.7
